# Tested on: CCRF-CEM
# Assay: Cytotoxicity against human CCRF-CEM cells assessed as reduction in cell viability measured after 72 hrs by MTS assay
# Type: functional, cell-based
# Conditions: not given
row,Compound,IC50 [µM]
1,C=C(/C=C/c1cccc(C)c1)[C@@H]1CC[C@]2(C(=O)O)CC[C@]3(C)[C@H](CC[C@@H]4[C@@]5(C)CC[C@H](O)C(C)(C)[C@@H]5CC[C@]43C)[C@@H]12,9.5
2,C=C(/C=C/c1ccc(C(C)(C)C)cc1)[C@@H]1CC[C@]2(C(=O)O)CC[C@]3(C)[C@H](CC[C@@H]4[C@@]5(C)CC[C@H](O)C(C)(C)[C@@H]5CC[C@]43C)[C@@H]12,45.6
3,C=C(/C=C/c1ccc(I)cc1)[C@@H]1CC[C@]2(C(=O)O)CC[C@]3(C)[C@H](CC[C@@H]4[C@@]5(C)CC[C@H](O)C(C)(C)[C@@H]5CC[C@]43C)[C@@H]12,16
4,C=C(/C=C/c1ccccc1I)[C@@H]1CC[C@]2(C(=O)O)CC[C@]3(C)[C@H](CC[C@@H]4[C@@]5(C)CC[C@H](O)C(C)(C)[C@@H]5CC[C@]43C)[C@@H]12,20.6
5,C=C(/C=C/c1ccc(F)cc1)[C@@H]1CC[C@]2(C(=O)O)CC[C@]3(C)[C@H](CC[C@@H]4[C@@]5(C)CC[C@H](O)C(C)(C)[C@@H]5CC[C@]43C)[C@@H]12,4.9

# Tested on: CEM-DNR
# Assay: Cytotoxicity against daunorubicin resistant human CEM-DNR cells assessed as reduction in cell viability measured after 72 hrs by MTS assay
# Type: functional, cell-based
# Conditions: not given
row,Compound,IC50 [µM]
1,C=C(/C=C/c1cccc(C)c1)[C@@H]1CC[C@]2(C(=O)O)CC[C@]3(C)[C@H](CC[C@@H]4[C@@]5(C)CC[C@H](O)C(C)(C)[C@@H]5CC[C@]43C)[C@@H]12,21.4
2,C=C(/C=C/c1ccc(C(C)(C)C)cc1)[C@@H]1CC[C@]2(C(=O)O)CC[C@]3(C)[C@H](CC[C@@H]4[C@@]5(C)CC[C@H](O)C(C)(C)[C@@H]5CC[C@]43C)[C@@H]12,> 50
3,C=C(/C=C/c1ccc(I)cc1)[C@@H]1CC[C@]2(C(=O)O)CC[C@]3(C)[C@H](CC[C@@H]4[C@@]5(C)CC[C@H](O)C(C)(C)[C@@H]5CC[C@]43C)[C@@H]12,> 50
4,C=C(/C=C/c1ccccc1I)[C@@H]1CC[C@]2(C(=O)O)CC[C@]3(C)[C@H](CC[C@@H]4[C@@]5(C)CC[C@H](O)C(C)(C)[C@@H]5CC[C@]43C)[C@@H]12,> 50
5,C=C(/C=C/c1ccc(F)cc1)[C@@H]1CC[C@]2(C(=O)O)CC[C@]3(C)[C@H](CC[C@@H]4[C@@]5(C)CC[C@H](O)C(C)(C)[C@@H]5CC[C@]43C)[C@@H]12,31.4

# Tested on: HCT-116
# Assay: Cytotoxicity against human HCT-116 cells assessed as reduction in cell viability measured after 72 hrs by MTS assay
# Type: functional, cell-based
# Conditions: HCT-116, 72 h
row,Compound,IC50 [µM]
1,C=C(/C=C/c1cccc(C)c1)[C@@H]1CC[C@]2(C(=O)O)CC[C@]3(C)[C@H](CC[C@@H]4[C@@]5(C)CC[C@H](O)C(C)(C)[C@@H]5CC[C@]43C)[C@@H]12,24.7
2,C=C(/C=C/c1ccc(C(C)(C)C)cc1)[C@@H]1CC[C@]2(C(=O)O)CC[C@]3(C)[C@H](CC[C@@H]4[C@@]5(C)CC[C@H](O)C(C)(C)[C@@H]5CC[C@]43C)[C@@H]12,> 50
3,C=C(/C=C/c1ccc(I)cc1)[C@@H]1CC[C@]2(C(=O)O)CC[C@]3(C)[C@H](CC[C@@H]4[C@@]5(C)CC[C@H](O)C(C)(C)[C@@H]5CC[C@]43C)[C@@H]12,30.7
4,C=C(/C=C/c1ccccc1I)[C@@H]1CC[C@]2(C(=O)O)CC[C@]3(C)[C@H](CC[C@@H]4[C@@]5(C)CC[C@H](O)C(C)(C)[C@@H]5CC[C@]43C)[C@@H]12,29.6
5,C=C(/C=C/c1ccc(F)cc1)[C@@H]1CC[C@]2(C(=O)O)CC[C@]3(C)[C@H](CC[C@@H]4[C@@]5(C)CC[C@H](O)C(C)(C)[C@@H]5CC[C@]43C)[C@@H]12,35.4

# Tested on: not listed separately
# Assay: Cytotoxicity against human HCT116 p53-null cells assessed as reduction in cell viability measured after 72 hrs by MTS assay
# Type: functional, cell-based
# Conditions: not given
row,Compound,IC50 [µM]
1,C=C(/C=C/c1cccc(C)c1)[C@@H]1CC[C@]2(C(=O)O)CC[C@]3(C)[C@H](CC[C@@H]4[C@@]5(C)CC[C@H](O)C(C)(C)[C@@H]5CC[C@]43C)[C@@H]12,22.3
2,C=C(/C=C/c1ccc(C(C)(C)C)cc1)[C@@H]1CC[C@]2(C(=O)O)CC[C@]3(C)[C@H](CC[C@@H]4[C@@]5(C)CC[C@H](O)C(C)(C)[C@@H]5CC[C@]43C)[C@@H]12,> 50
3,C=C(/C=C/c1ccc(I)cc1)[C@@H]1CC[C@]2(C(=O)O)CC[C@]3(C)[C@H](CC[C@@H]4[C@@]5(C)CC[C@H](O)C(C)(C)[C@@H]5CC[C@]43C)[C@@H]12,33.3
4,C=C(/C=C/c1ccccc1I)[C@@H]1CC[C@]2(C(=O)O)CC[C@]3(C)[C@H](CC[C@@H]4[C@@]5(C)CC[C@H](O)C(C)(C)[C@@H]5CC[C@]43C)[C@@H]12,29.5
5,C=C(/C=C/c1ccc(F)cc1)[C@@H]1CC[C@]2(C(=O)O)CC[C@]3(C)[C@H](CC[C@@H]4[C@@]5(C)CC[C@H](O)C(C)(C)[C@@H]5CC[C@]43C)[C@@H]12,41

# Tested on: K562
# Assay: Cytotoxicity against human K562 cells assessed as reduction in cell viability measured after 72 hrs by MTS assay
# Type: functional, cell-based
# Conditions: K562, 72 h
row,Compound,IC50 [µM]
1,C=C(/C=C/c1cccc(C)c1)[C@@H]1CC[C@]2(C(=O)O)CC[C@]3(C)[C@H](CC[C@@H]4[C@@]5(C)CC[C@H](O)C(C)(C)[C@@H]5CC[C@]43C)[C@@H]12,24.9
2,C=C(/C=C/c1ccc(C(C)(C)C)cc1)[C@@H]1CC[C@]2(C(=O)O)CC[C@]3(C)[C@H](CC[C@@H]4[C@@]5(C)CC[C@H](O)C(C)(C)[C@@H]5CC[C@]43C)[C@@H]12,> 50
3,C=C(/C=C/c1ccc(I)cc1)[C@@H]1CC[C@]2(C(=O)O)CC[C@]3(C)[C@H](CC[C@@H]4[C@@]5(C)CC[C@H](O)C(C)(C)[C@@H]5CC[C@]43C)[C@@H]12,> 50
4,C=C(/C=C/c1ccccc1I)[C@@H]1CC[C@]2(C(=O)O)CC[C@]3(C)[C@H](CC[C@@H]4[C@@]5(C)CC[C@H](O)C(C)(C)[C@@H]5CC[C@]43C)[C@@H]12,25.1
5,C=C(/C=C/c1ccc(F)cc1)[C@@H]1CC[C@]2(C(=O)O)CC[C@]3(C)[C@H](CC[C@@H]4[C@@]5(C)CC[C@H](O)C(C)(C)[C@@H]5CC[C@]43C)[C@@H]12,36.2

# Tested on: not listed separately
# Assay: Cytotoxicity against paclitaxel resistant human K562-Tax cells assessed as reduction in cell viability measured after 72 hrs by MTS assay
# Type: functional, cell-based
# Conditions: not given
row,Compound,IC50 [µM]
1,C=C(/C=C/c1cccc(C)c1)[C@@H]1CC[C@]2(C(=O)O)CC[C@]3(C)[C@H](CC[C@@H]4[C@@]5(C)CC[C@H](O)C(C)(C)[C@@H]5CC[C@]43C)[C@@H]12,23.6
2,C=C(/C=C/c1ccc(C(C)(C)C)cc1)[C@@H]1CC[C@]2(C(=O)O)CC[C@]3(C)[C@H](CC[C@@H]4[C@@]5(C)CC[C@H](O)C(C)(C)[C@@H]5CC[C@]43C)[C@@H]12,> 50
3,C=C(/C=C/c1ccc(I)cc1)[C@@H]1CC[C@]2(C(=O)O)CC[C@]3(C)[C@H](CC[C@@H]4[C@@]5(C)CC[C@H](O)C(C)(C)[C@@H]5CC[C@]43C)[C@@H]12,> 50
4,C=C(/C=C/c1ccccc1I)[C@@H]1CC[C@]2(C(=O)O)CC[C@]3(C)[C@H](CC[C@@H]4[C@@]5(C)CC[C@H](O)C(C)(C)[C@@H]5CC[C@]43C)[C@@H]12,> 50
5,C=C(/C=C/c1ccc(F)cc1)[C@@H]1CC[C@]2(C(=O)O)CC[C@]3(C)[C@H](CC[C@@H]4[C@@]5(C)CC[C@H](O)C(C)(C)[C@@H]5CC[C@]43C)[C@@H]12,29.8

# Tested on: A549
# Assay: Cytotoxicity against human A549 cells assessed as reduction in cell viability measured after 72 hrs by MTS assay
# Type: functional, cell-based
# Conditions: A549, 72 h
row,Compound,IC50 [µM]
1,C=C(/C=C/c1cccc(C)c1)[C@@H]1CC[C@]2(C(=O)O)CC[C@]3(C)[C@H](CC[C@@H]4[C@@]5(C)CC[C@H](O)C(C)(C)[C@@H]5CC[C@]43C)[C@@H]12,36.5
2,C=C(/C=C/c1ccc(C(C)(C)C)cc1)[C@@H]1CC[C@]2(C(=O)O)CC[C@]3(C)[C@H](CC[C@@H]4[C@@]5(C)CC[C@H](O)C(C)(C)[C@@H]5CC[C@]43C)[C@@H]12,> 50
3,C=C(/C=C/c1ccc(I)cc1)[C@@H]1CC[C@]2(C(=O)O)CC[C@]3(C)[C@H](CC[C@@H]4[C@@]5(C)CC[C@H](O)C(C)(C)[C@@H]5CC[C@]43C)[C@@H]12,> 50
4,C=C(/C=C/c1ccccc1I)[C@@H]1CC[C@]2(C(=O)O)CC[C@]3(C)[C@H](CC[C@@H]4[C@@]5(C)CC[C@H](O)C(C)(C)[C@@H]5CC[C@]43C)[C@@H]12,29.7
5,C=C(/C=C/c1ccc(F)cc1)[C@@H]1CC[C@]2(C(=O)O)CC[C@]3(C)[C@H](CC[C@@H]4[C@@]5(C)CC[C@H](O)C(C)(C)[C@@H]5CC[C@]43C)[C@@H]12,40.6

# Tested on: U2OS
# Assay: Cytotoxicity against human U2OS cells assessed as reduction in cell viability measured after 72 hrs by MTS assay
# Type: functional, cell-based
# Conditions: not given
row,Compound,IC50 [µM]
1,C=C(/C=C/c1cccc(C)c1)[C@@H]1CC[C@]2(C(=O)O)CC[C@]3(C)[C@H](CC[C@@H]4[C@@]5(C)CC[C@H](O)C(C)(C)[C@@H]5CC[C@]43C)[C@@H]12,18.2
2,C=C(/C=C/c1ccc(C(C)(C)C)cc1)[C@@H]1CC[C@]2(C(=O)O)CC[C@]3(C)[C@H](CC[C@@H]4[C@@]5(C)CC[C@H](O)C(C)(C)[C@@H]5CC[C@]43C)[C@@H]12,45.1
3,C=C(/C=C/c1ccc(I)cc1)[C@@H]1CC[C@]2(C(=O)O)CC[C@]3(C)[C@H](CC[C@@H]4[C@@]5(C)CC[C@H](O)C(C)(C)[C@@H]5CC[C@]43C)[C@@H]12,32.2
4,C=C(/C=C/c1ccccc1I)[C@@H]1CC[C@]2(C(=O)O)CC[C@]3(C)[C@H](CC[C@@H]4[C@@]5(C)CC[C@H](O)C(C)(C)[C@@H]5CC[C@]43C)[C@@H]12,28.5
5,C=C(/C=C/c1ccc(F)cc1)[C@@H]1CC[C@]2(C(=O)O)CC[C@]3(C)[C@H](CC[C@@H]4[C@@]5(C)CC[C@H](O)C(C)(C)[C@@H]5CC[C@]43C)[C@@H]12,23.9

# Tested on: BJ
# Assay: Cytotoxicity against human BJ cells assessed as reduction in cell viability measured after 72 hrs by MTS assay
# Type: cell-based
# Conditions: not given
row,Compound,IC50 [µM]
1,C=C(/C=C/c1cccc(C)c1)[C@@H]1CC[C@]2(C(=O)O)CC[C@]3(C)[C@H](CC[C@@H]4[C@@]5(C)CC[C@H](O)C(C)(C)[C@@H]5CC[C@]43C)[C@@H]12,> 50
2,C=C(/C=C/c1ccc(C(C)(C)C)cc1)[C@@H]1CC[C@]2(C(=O)O)CC[C@]3(C)[C@H](CC[C@@H]4[C@@]5(C)CC[C@H](O)C(C)(C)[C@@H]5CC[C@]43C)[C@@H]12,> 50
3,C=C(/C=C/c1ccc(I)cc1)[C@@H]1CC[C@]2(C(=O)O)CC[C@]3(C)[C@H](CC[C@@H]4[C@@]5(C)CC[C@H](O)C(C)(C)[C@@H]5CC[C@]43C)[C@@H]12,> 50
4,C=C(/C=C/c1ccccc1I)[C@@H]1CC[C@]2(C(=O)O)CC[C@]3(C)[C@H](CC[C@@H]4[C@@]5(C)CC[C@H](O)C(C)(C)[C@@H]5CC[C@]43C)[C@@H]12,> 50
5,C=C(/C=C/c1ccc(F)cc1)[C@@H]1CC[C@]2(C(=O)O)CC[C@]3(C)[C@H](CC[C@@H]4[C@@]5(C)CC[C@H](O)C(C)(C)[C@@H]5CC[C@]43C)[C@@H]12,44.6

# Tested on: MRC5
# Assay: Cytotoxicity against human MRC5 cells assessed as reduction in cell viability measured after 72 hrs by MTS assay
# Type: cell-based
# Conditions: MRC5, 72 h
row,Compound,IC50 [µM]
1,C=C(/C=C/c1cccc(C)c1)[C@@H]1CC[C@]2(C(=O)O)CC[C@]3(C)[C@H](CC[C@@H]4[C@@]5(C)CC[C@H](O)C(C)(C)[C@@H]5CC[C@]43C)[C@@H]12,42.2
2,C=C(/C=C/c1ccc(C(C)(C)C)cc1)[C@@H]1CC[C@]2(C(=O)O)CC[C@]3(C)[C@H](CC[C@@H]4[C@@]5(C)CC[C@H](O)C(C)(C)[C@@H]5CC[C@]43C)[C@@H]12,> 50
3,C=C(/C=C/c1ccc(I)cc1)[C@@H]1CC[C@]2(C(=O)O)CC[C@]3(C)[C@H](CC[C@@H]4[C@@]5(C)CC[C@H](O)C(C)(C)[C@@H]5CC[C@]43C)[C@@H]12,41.2
4,C=C(/C=C/c1ccccc1I)[C@@H]1CC[C@]2(C(=O)O)CC[C@]3(C)[C@H](CC[C@@H]4[C@@]5(C)CC[C@H](O)C(C)(C)[C@@H]5CC[C@]43C)[C@@H]12,29.5
5,C=C(/C=C/c1ccc(F)cc1)[C@@H]1CC[C@]2(C(=O)O)CC[C@]3(C)[C@H](CC[C@@H]4[C@@]5(C)CC[C@H](O)C(C)(C)[C@@H]5CC[C@]43C)[C@@H]12,38.3

# Reference: ChEMBL document CHEMBL4828721, “Substituted dienes prepared from betulinic acid - Synthesis, cytotoxicity, mechanism of action, and pharmacological parameters” (Eur J Med Chem, 2021)
